Experimental data as given in patent US9090593B2, “Bicyclic compounds as Pim inhibitors” (AMGEN INC., priority 2010, dated 2015).
Read-outs that look alike come from different tables or passages of the source.

Tests used:
[1] = molecular target: T1, full length recombinant Pim-1 protein (Homo sapiens, UniProt P11309); assay: Pim-1 enzyme assay (HTRF, phosphorylation of biotinylated-BAD (S112) peptide); type: biochemical; settings: enzyme assay, Pim-1; read-out: Pim_1_IC50
T1 construct: by full length recombinant Pim-1, Pim-2, or Pim-3 protein; hexahistidine tag followed by a thrombin cleavage site (N); made in house; host or cells: Sf9 (baculovirus) or E. coli (pET28)
Procedure, shortened: (§1)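 Full-length His-tagged Pim-1 or Pim-2 (Sf9 or E. coli expressed, purified) phosphorylated biotinylated BAD (S112) peptide in 60 mM Hepes pH 7.0, 0.05% BSA, 2 mM DTT. Reaction stopped with 3 mM EDTA; phospho-BAD read by HTRF with Eu anti-phospho-BAD antibody and streptavidin-APC. IC50 from percent of control by 4-parameter logistic fit.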

[2] = molecular target: T2, full length recombinant Pim-2 protein (Homo sapiens, UniProt Q9P1W9); assay: Pim-2 enzyme assay (HTRF, phosphorylation of biotinylated-BAD (S112) peptide); type: biochemical; settings: enzyme assay, Pim-2; read-out: Pim2_IC50
T2 construct: by full length recombinant Pim-1, Pim-2, or Pim-3 protein; hexahistidine tag followed by a thrombin cleavage site (N); made in house; host or cells: Sf9 (baculovirus) or E. coli (pET28)
Procedure, shortened: as §1

[3] = molecular target: T3, full length recombinant Pim-3 protein (Homo sapiens, UniProt Q86V86); assay: Pim-3 enzyme assay (HTRF, phosphorylation of biotinylated-BAD (S112) peptide); type: biochemical; settings: read-out: Pim3 IC50
T3 construct: by full length recombinant Pim-1, Pim-2, or Pim-3 protein; purchased Millipore (UK)
Procedure, shortened: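 Full-length recombinant Pim-3 phosphorylates biotinylated BAD (S112) peptide in 60 mM Hepes pH 7.0, 0.05% BSA, 2 mM DTT; reaction stopped with 3 mM EDTA. Phospho-BAD detected by HTRF (Eu anti-phospho-BAD S112 antibody, streptavidin-APC). IC50 from percent-of-control values fitted to a 4-parameter logistic model.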

[4] = molecular target: T4, Pim-1 stably transfected into the U2OS human osteogenic sarcoma line (Homo sapiens, UniProt P11309); assay: Pim cell assay, phospho-BAD normalized against total BAD, U2OS stably transfected with Pim-1; type: cell-based; settings: read-out: Pim1_Cell_IC50
T4 construct: expressed in transfected cells; host or cells: U2OS human osteogenic sarcoma line
Procedure, shortened: (§2)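 U2OS cells stably expressing Pim-1 or Pim-2 were plated overnight at 37 °C, then dosed over a 10-point curve (final 0.3% DMSO; DMSO alone as high control). Lysates assayed for phospho- and total BAD by Meso Scale immunoassay; % phosphoprotein = (2×phospho)/(phospho+total)×100.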

[5] = molecular target: T5, Pim-2 stably transfected into the U2OS human osteogenic sarcoma line (Homo sapiens, UniProt Q9P1W9); assay: Pim cell assay, phospho-BAD normalized against total BAD, U2OS stably transfected with Pim-2; type: cell-based; settings: read-out: Pim2_Cell_IC50; also: high dose 31.6 µM
T5 construct: expressed in transfected cells; host or cells: U2OS human osteogenic sarcoma line
Procedure, shortened: as §2

[6] = U2OS cells stably transfected with Pim-1, phospho-BAD, high dose […]
[7] = U2OS cells stably transfected with Pim-2, phospho-BAD, high dose […]

T5 sequence (Q9P1W9 whole entry): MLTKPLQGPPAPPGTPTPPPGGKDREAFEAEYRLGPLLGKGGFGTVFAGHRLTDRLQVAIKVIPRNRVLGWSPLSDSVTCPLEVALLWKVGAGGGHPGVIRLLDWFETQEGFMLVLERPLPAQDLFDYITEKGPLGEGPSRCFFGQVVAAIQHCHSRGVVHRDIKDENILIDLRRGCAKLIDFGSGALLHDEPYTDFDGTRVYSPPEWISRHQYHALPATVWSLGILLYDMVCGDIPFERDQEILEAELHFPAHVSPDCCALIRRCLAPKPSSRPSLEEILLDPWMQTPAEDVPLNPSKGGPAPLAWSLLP
T2 sequence (Q9P1W9 whole entry): as above
T4 sequence (P11309 whole entry): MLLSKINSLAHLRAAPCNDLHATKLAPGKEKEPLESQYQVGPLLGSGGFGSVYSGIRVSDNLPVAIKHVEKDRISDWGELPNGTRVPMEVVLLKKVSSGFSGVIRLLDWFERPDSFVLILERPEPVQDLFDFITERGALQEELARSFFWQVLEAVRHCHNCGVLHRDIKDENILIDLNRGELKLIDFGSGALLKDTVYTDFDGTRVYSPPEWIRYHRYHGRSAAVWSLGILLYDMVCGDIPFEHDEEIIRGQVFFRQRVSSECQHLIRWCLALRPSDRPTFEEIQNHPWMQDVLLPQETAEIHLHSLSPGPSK
T1 sequence (P11309 whole entry): as above

Compound	IC50 [1] [nM]	IC50 [2] [nM]	IC50 [3] [nM]	IC50 [4, 6] [nM]	IC50 [5, 7] [nM]	IC50 [4] [nM]	IC50 [5] [nM]
C[C@H]1CCNC[C@@H]1Oc1cncc(-c2n[nH]c3ccc(-c4c(F)cccc4F)cc23)n1 [Example 195, 5-(2,6-difluorophenyl)-3-(6-(((3R,4S)-4-methyl-3-piperidinyl)oxy)-2-pyrazinyl)-1H-indazole]	4	15	7	211	7580	–	–
C[C@H]1CCNC[C@H]1Oc1cncc(-c2n[nH]c3ccc(-c4c(F)cccc4F)cc23)n1 [Example 199, 5-(2,6-difluorophenyl)-3-(6-(((3S,4S)-4-methyl-3-piperidinyl)oxy)-2-pyrazinyl)-1H-indazole]	5	16	4	400	3410	–	–
Fc1cccc(F)c1-c1ccc2[nH]cc(-c3cncc(NC4CCNCC4)n3)c2c1 [Example 205, 6-(5-(2,6-difluorophenyl)-1H-indol-3-yl)-N-4-piperidinyl-2-pyrazinamine]	4	29	4	273	4330	–	–
Fc1cccc(F)c1-c1ccc2[nH]cc(-c3cncc(OC4CCNCC4)n3)c2c1 [Example 206, 5-(2,6-difluorophenyl)-3-(6-(4-piperidinyloxy)-2-pyrazinyl)-1H-indole]	2	54	6	326	20400	–	–
Fc1cccc(F)c1-c1ccc2[nH]cc(-c3cncc(N[C@@H]4CCCNC4)n3)c2c1 [Example 207, 6-(5-(2,6-difluorophenyl)-1H-indol-3-yl)-N-((3R)-3-piperidinyl)-2-pyrazinamine]	1	11	4	102	3030	–	–
Fc1cccc(F)c1-c1ccc2[nH]cc(-c3cncc(N[C@@H]4CCNC4)n3)c2c1 [Example 208, 6-(5-(2,6-difluorophenyl)-1H-indol-3-yl)-N-((3R)-3-pyrrolidinyl)-2-pyrazinamine]	2	15	4	381	4620	–	–
Fc1cccc(F)c1-c1ccc2[nH]cc(-c3nccc(OC4CCNCC4)n3)c2c1 [Example 211, 5-(2,6-difluorophenyl)-3-(4-(4-piperidinyloxy)-2-pyrimidinyl)-1H-indole]	86	445	61	–	–	3790	> 31600
CC(C)Oc1cncc(-c2ccc3[nH]cc(-c4csc(-n5ccccc5=O)n4)c3c2)n1 [Example 227, 1-(4-(5-(6-(1-methylethoxy)-2-pyrazinyl)-1H-indol-3-yl)-1,3-thiazol-2-yl)-2(1H)-pyridinone]	100	> 3000	206	–	–	> 15800	> 15800
CC(C)Oc1cncc(-c2ccc3[nH]cc(-c4csc(-n5ccnc5)n4)c3c2)n1 [Example 228, 3-(2-(1H-imidazol-1-yl)-1,3-thiazol-4-yl)-5-(6-(1-methylethoxy)-2-pyrazinyl)-1H-indole]	43	1410	42	–	–	3420	> 31600
CC(C)Oc1cncc(-c2ccc3[nH]cc(-c4cncc(N(C)C)n4)c3c2)n1 [Example 230, N,N-dimethyl-6-(5-(6-(1-methylethoxy)-2-pyrazinyl)-1H-indol-3-yl)-2-pyrazinamine]	89	2360	50	–	–	2830	> 31600

Continued by falling IC50 [1], values first:

IC50 [1] [nM]	IC50 [2] [nM]	IC50 [3] [nM]	IC50 [4, 6] [nM]	IC50 [5, 7] [nM]	IC50 [4] [nM]	IC50 [5] [nM]	Compound
139	1040	233	> 31600	> 31600	–	–	Fc1cccc(F)c1-c1ccc2[nH]nc(-c3cncc(Nc4ccccc4)n3)c2c1 [Example 184, 6-(5-(2,6-difluorophenyl)-1H-indazol-3-yl)-N-phenyl-2-pyrazinamine]
77	> 3000	138	–	–	1470	> 31600	CC(C)Oc1cncc(-c2ccc3[nH]cc(-c4cncc(N5CCOCC5)n4)c3c2)n1 [Example 225, 5-(6-(1-methylethoxy)-2-pyrazinyl)-3-(6-(4-morpholinyl)-2-pyrazinyl)-1H-indole]
50	131	22	1830	24200	–	–	Fc1cccc(F)c1-c1ccc2[nH]nc(-c3cncc(OC4CCNC4)n3)c2c1 (stereo not drawn) [Example 187, 5-(2,6-difluorophenyl)-3-(6-(3-pyrrolidinyloxy)-2-pyrazinyl)-1H-indazole]
50	506	33	–	–	1920	> 31600	CC(C)Oc1cncc(-c2ccc3[nH]cc(-c4ccc5cn[nH]c5c4)c3c2)n1 [Example 221, 6-(5-(6-(1-methylethoxy)-2-pyrazinyl)-1H-indol-3-yl)-1H-indazole]
36	89	49	–	–	1180	30300	Fc1cccc(F)c1-c1ccc2[nH]cc(-c3nccc(O[C@@H]4CCCNC4)n3)c2c1 [Example 209, 5-(2,6-difluorophenyl)-3-(4-((3R)-3-piperidinyloxy)-2-pyrimidinyl)-1H-indole]
24	223	36	1220	18800	–	–	Fc1cccc(F)c1-c1ccc2[nH]nc(-c3ccnc(O[C@@H]4CCCNC4)n3)c2c1 [Example 190, 5-(2,6-difluorophenyl)-3-(2-((3R)-3-piperidinyloxy)-4-pyrimidinyl)-1H-indazole]
22	343	40	–	–	1370	18900	CC(C)Oc1cncc(-c2ccc3[nH]cc(-c4cncc(O[C@@H]5CCCNC5)n4)c3c2)n1 [Example 213, 5-(6-(1-methylethoxy)-2-pyrazinyl)-3-(6-((3R)-3-piperidinyloxy)-2-pyrazinyl)-1H-indole]
15	185	18	997	> 31600	–	–	N[C@@H]1CCN(c2cncc(-c3c[nH]c4ccc(-c5c(F)cccc5F)cc34)n2)C1 [Example 212, (3R)-1-(6-(5-(2,6-difluorophenyl)-1H-indol-3-yl)-2-pyrazinyl)-3-pyrrolidinamine]
4	13	5	146	5090	–	–	C[C@H]1CCNC[C@@H]1Oc1cncc(-c2n[nH]c3ccc(-c4c(F)cccc4F)cc23)n1 [Example 198, 5-(2,6-difluorophenyl)-3-(6-(((3R,4S)-4-methyl-3-piperidinyl)oxy)-2-pyrazinyl)-1H-indazole]
2	52	3	561	> 31600	–	–	NC1CCN(c2nccc(-c3n[nH]c4ccc(-c5c(F)cccc5F)cc34)n2)CC1 [Example 194, 1-(4-(5-(2,6-difluorophenyl)-1H-indazol-3-yl)-2-pyrimidinyl)-4-piperidinamine]
1	66	5	611	> 31600	–	–	N[C@H]1CCCN(c2cncc(-c3c[nH]c4ccc(-c5c(F)cccc5F)cc34)n2)C1 [Example 201, (3S)-1-(6-(5-(2,6-difluorophenyl)-1H-indol-3-yl)-2-pyrazinyl)-3-piperidinamine]
